In patent US6825230B2, “Spiro and dispiro 1,2,4-trixolane antimalarials” (Medicines for Malaria Venture MMV, priority 2002, dated 2004):
Converted amounts (≈) assume the structure as drawn. Read-outs that look alike come from different tables or passages of the source.

Columns and labels:
[1] = tested on: chloroquine-resistant K1 strain of P. falciparum; experiment: In vitro antimalarial semiautomated microdilution assay ([3H]-hypoxanthine incorporation), K1 strain; type: cell-based, Plasmodium falciparum; conditions: Plasmodium falciparum
Outline: (§1)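 IC50 comes from Logit regression of [3H]-hypoxanthine incorporation data. Intraerythrocytic P. falciparum taken from asynchronous stock cultures is exposed to OZ compounds in a semiautomated microdilution format.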

[2] = tested on: chloroquine-sensitive NF54 strain of P. falciparum; experiment: In vitro antimalarial semiautomated microdilution assay ([3H]-hypoxanthine incorporation), NF54 strain; type: cell-based, Plasmodium falciparum; conditions: Plasmodium falciparum
Outline: as §1

[3] = tested on: ANKA strain of P. berghei; experiment: Single dose STI in vivo screen in infected mice; set-up: species or system Plasmodium berghei; conditions: for Survival (days) 10 mg/kg po: single 10 mg/kg po in 3% ethanol and 7% Tween 80; for Survival (days) 10 mg/kg po / Survival (days) 10 mg/kg SSV po / Survival (days) 10 mg/kg sc: untreated 6-7 days; for Activity (%) 10 mg/kg po: single 10 mg/kg po in 3% ethanol and 7% Tween 80 on day 1 post-infection; for Activity (%) 10 mg/kg po / Activity (%) 10 mg/kg SSV po / Activity (%) 10 mg/kg sc: percent reduction in parasitemia on day 3; for Survival (days) 10 mg/kg SSV po: single 10 mg/kg po in SSV; for Activity (%) 10 mg/kg SSV po: single 10 mg/kg po in standard suspending vehicle (SSV) on day 1 post-infection; for Survival (days) 10 mg/kg sc: single 10 mg/kg sc in 3% ethanol and 7% Tween 80; for Activity (%) 10 mg/kg sc: single 10 mg/kg sc in 3% ethanol and 7% Tween 80 on day 1 post-infection
[4] = K1, 72 h, read-out: IC50 (ng/ml) K1, chloroquine-resistant K1 strain, 72 h incubation
[5] = NF54, 72 h, read-out: IC50 (ng/ml) NF54, chloroquine-sensitive NF54 strain, 72 h incubation
[6] = chloroquine-resistant K1 strain, 72 h incubation, read-out: IC50 (ng/ml) K1
[7] = chloroquine-sensitive NF54 strain, 72 h incubation, read-out: IC50 (ng/ml) NF54

Compound	IC50 [1, 4]	IC50 [2, 5]	Survival (days) 10 mg/kg po [3]	Activity (%) 10 mg/kg po [3]	Survival (days) 10 mg/kg SSV po [3]	Activity (%) 10 mg/kg SSV po [3]	Survival (days) 10 mg/kg sc [3]	Activity (%) 10 mg/kg sc [3]	IC50 [1, 6]	IC50 [2, 7]
NC(=O)CN(CC(N)=O)C[C@H]1CC[C@]2(CC1)OOC1(O2)C2CC3CC(C2)CC1C3 (stereo partly shown) [OZ236]	2 ng/mL (≈ 4.91 nM)	2 ng/mL (≈ 4.91 nM)	6.3 days	89%	7.7 days	86%	7.7 days	98.61%	–	–
N=C(N)NC[C@H]1CC[C@]2(CC1)OOC1(O2)C2CC3CC(C2)CC1C3 (stereo partly shown) [OZ237]	5.7 ng/mL (≈ 17 nM)	7.1 ng/mL (≈ 21.2 nM)	6.0 days	5%	6.0 days	9%	6.7 days	52%	–	–
NC(=O)C[C@H]1CC[C@]2(CC1)OOC1(O2)C2CC3CC(C2)CC1C3 (stereo partly shown) [OZ243]	0.91 ng/mL (≈ 2.83 nM)	1.1 ng/mL (≈ 3.42 nM)	7.3 days	87%	8.7 days	97%	6.3 days	70%	–	–
O=C(C[C@H]1CC[C@]2(CC1)OOC1(O2)C2CC3CC(C2)CC1C3)N1CCN(c2ccccc2)CC1 (stereo partly shown) [OZ244]	–	–	5.7 days	6%	5.3 days	0%	6.3 days	18%	4 ng/mL (≈ 8.57 nM)	4.2 ng/mL (≈ 9 nM)
OC1(c2nccs2)CCC2(CC1)OOC1(O2)C2CC3CC(C2)CC1C3 (stereo not shown) [OZ247]	–	–	6.3 days	57%	6.0 days	27%	9.0 days	99.85%	1.8 ng/mL (≈ 4.95 nM)	2.3 ng/mL (≈ 6.33 nM)
c1c[nH]c([C@H]2CC[C@]3(CC2)OOC2(O3)C3CC4CC(C3)CC2C4)n1 (stereo partly shown) [OZ251]	–	–	6.7 days	29%	6.0 days	6%	9.0 days	99.87%	0.6 ng/mL (≈ 1.82 nM)	0.35 ng/mL (≈ 1.06 nM)
c1csc(NC[C@H]2CC[C@]3(CC2)OOC2(O3)C3CC4CC(C3)CC2C4)n1 (stereo partly shown) [OZ252]	–	–	8.3 days	98.91%	9.0 days	99.49%	9.3 days	99.82%	2.3 ng/mL (≈ 6.11 nM)	2.2 ng/mL (≈ 5.84 nM)
C1C2CC3CC1CC(C2)C31OO[C@]2(CC[C@@H](CNC3CC3)CC2)O1 (stereo partly shown) [OZ253]	–	–	7.0 days	75%	6.7 days	59%	9.3 days	99.82%	0.56 ng/mL (≈ 1.68 nM)	0.45 ng/mL (≈ 1.35 nM)
C1C2CC3CC1CC(C2)C31OO[C@]2(CC[C@@H](CN(C[C@H]3CC[C@]4(CC3)OOC3(O4)C4CC5CC(C4)CC3C5)C3CC3)CC2)O1 (stereo partly drawn) [OZ254, N,N-Bis(cis-adamantane-2-spiro-3′-1′,2′,4′-trioxaspiro[4.5]decane-8′-methyl)cyclopropylamine]	–	–	6.0 days	27%	5.7 days	11%	5.7 days	2%	> 100 ng/mL	57 ng/mL (≈ 93.5 nM)
O=C(NC[C@H]1CC[C@]2(CC1)OOC1(O2)C2CC3CC(C2)CC1C3)c1ccncc1 (stereo partly shown) [OZ255]	–	–	9.0 days	99.61%	8.7 days	99.54%	10.0 days	99.92%	2.2 ng/mL (≈ 5.52 nM)	1.1 ng/mL (≈ 2.76 nM)
CS(=O)(=O)NC[C@H]1CC[C@]2(CC1)OOC1(O2)C2CC3CC(C2)CC1C3 (stereo partly shown) [OZ257]	–	–	8.3 days	99.00%	7.7 days	99.49%	9.7 days	99.84%	42 ng/mL (≈ 113 nM)	21 ng/mL (≈ 56.5 nM)
Clc1ccc2c(NCCNC3CCC4(CC3)OOC3(O4)C4CC5CC(C4)CC3C5)ccnc2c1 (stereo not shown) [OZ258]	–	–	6.0 days	75%	6.0 days	70%	10.7 days	99.95%	5.8 ng/mL (≈ 12 nM)	5.2 ng/mL (≈ 10.7 nM)
CCOC(=O)CCC[C@H]1CC[C@]2(CC1)OOC1(O2)C2CC3CC(C2)CC1C3 (stereo partly shown) [OZ260]	–	–	6.7 days	72%	7.0 days	51%	7.7 days	81%	5.6 ng/mL (≈ 14.8 nM)	4.3 ng/mL (≈ 11.4 nM)
O=C(O)CCC[C@H]1CC[C@]2(CC1)OOC1(O2)C2CC3CC(C2)CC1C3 (stereo partly shown) [OZ261]	–	–	7.0 days	61%	7.0 days	47%	8.0 days	92%	39 ng/mL (≈ 111 nM)	18 ng/mL (≈ 51.4 nM)
CC(=O)NC[C@H]1CC[C@]2(CC1)OOC1(O2)C2CC3CC(C2)CC1C3 (stereo partly shown) [OZ262]	–	–	11.7 days	96%	12.3 days	98%	10.0 days	99.39%	0.63 ng/mL (≈ 1.88 nM)	0.84 ng/mL (≈ 2.5 nM)
O=C(NC[C@H]1CC[C@]2(CC1)OOC1(O2)C2CC3CC(C2)CC1C3)c1c[nH]cn1 (stereo partly shown) [OZ263]	–	–	13.0 days	99.53%	13.3 days	99.45%	11.0 days	99.92%	0.84 ng/mL (≈ 2.17 nM)	1.1 ng/mL (≈ 2.84 nM)
O=C(NC[C@H]1CC[C@]2(CC1)OOC1(O2)C2CC3CC(C2)CC1C3)c1cc[n+]([O-])cc1 (stereo partly shown) [OZ264]	–	–	11.0 days	99.61%	10.3 days	99.92%	13.7 days	99.97%	1.2 ng/mL (≈ 2.9 nM)	1.5 ng/mL (≈ 3.62 nM)
NC(=O)NC[C@H]1CC[C@]2(CC1)OOC1(O2)C2CC3CC(C2)CC1C3 (stereo partly shown) [OZ265]	–	–	13.0 days	99%	9.7 days	98%	11.7 days	99.67%	0.56 ng/mL (≈ 1.66 nM)	1.6 ng/mL (≈ 4.76 nM)
CN(C)C(=O)NC[C@H]1CC[C@]2(CC1)OOC1(O2)C2CC3CC(C2)CC1C3 (stereo partly shown) [OZ266]	–	–	13.7 days	99%	11.7 days	99.39%	11.7 days	99.75%	1.1 ng/mL (≈ 3.02 nM)	1.5 ng/mL (≈ 4.12 nM)
CN1CCN(C(=O)NC[C@H]2CC[C@]3(CC2)OOC2(O3)C3CC4CC(C3)CC2C4)CC1 (stereo partly shown) [OZ267]	–	–	8.3 days	99.92%	8.7 days	99.89%	9.3 days	99.97%	0.2 ng/mL (≈ 0.477 nM)	0.34 ng/mL (≈ 0.81 nM)
NC(=O)C(=O)NC[C@H]1CC[C@]2(CC1)OOC1(O2)C2CC3CC(C2)CC1C3 (stereo partly drawn) [OZ268, N-(cis-Adamantane-2-spiro-3′-1′,2′,4′-trioxaspiro[4.5]decane-8′-methyl)oxamide]	–	–	9.3 days	99.86%	13.3 days	99.47%	9.7 days	99.92%	0.44 ng/mL (≈ 1.21 nM)	0.71 ng/mL (≈ 1.95 nM)
NC[C@H]1CC[C@@]2(CC1)OOC1(O2)C2CC3CC(C2)CC1C3 (stereo partly shown) [OZ269]	–	–	10.7 days	98%	11.3 days	86%	9.0 days	99.92%	0.32 ng/mL (≈ 1.09 nM)	0.61 ng/mL (≈ 2.08 nM)
O=C(NC[C@H]1CC[C@]2(CC1)OOC1(O2)C2CC3CC(C2)CC1C3)c1cccc[n+]1[O-] (stereo partly shown) [OZ270]	–	–	13.7 days	99.17%	12.3 days	99.47%	11.3 days	99.81%	0.85 ng/mL (≈ 2.05 nM)	1.3 ng/mL (≈ 3.14 nM)
